Read-outs that look alike come from different tables or passages of the source.
Experiments:
[1] = biological target: SARS-CoV-2 main protease (Mpro) (Severe acute respiratory syndrome coronavirus 2, UniProt P0DTD1); assay: biochemical
[2] = system: SARS-CoV-2 (strain USA-WA1/2020); assay: microbe, parasite or virus in culture; type: cell-based
[3] = system: HeLa-ACE2 cells; assay: cells; type: cell-based; settings: Table 2, total cell count in infected plates
[4] = Uninfected host cell cytotoxicity counter screen; type: cell-based; settings: human
Procedure: Uninfected host cell cytotoxicity counter screen: HeLa-ACE2 cells were maintained as described for the infection assay and seeded in the assay-ready plates at 400 cells/well. Plates were incubated for 24 hours at 37° C. 5% CO2. To assess cell viability, the Image-iT DEAD green reagent was used according to manufacturer instructions. Cells were fixed with 4% paraformaldehyde, and counterstained with DAPI. Fixed cells are imaged as described above.
Viral replication data analysis: Data from the primary screen and the host cell cytotoxicity screen are normalized to neutral (DMSO) […] inhibitor controls (2.5 μM Remdesivir for antiviral effect and 10 μM puromycin for infected host cell toxicity). For the uninfected host cell cytotoxicity counter-screen 40 μM puromycin is used as the positive control. Concentration response experiments will be tested in triplicate.

[5] = Severe acute respiratory syndrome coronavirus 2, HeLa-ACE2, read-out: CoV-2 HeLa EC50, Table 2, SARS-CoV-2 infected HeLa-ACE2 cells
[6] = Severe acute respiratory syndrome coronavirus 2, Table 2, SARS-CoV-2 infected HeLa-ACE2 cells, read-out: CoV-2 HeLa EC50
[7] = Table 3, select example compounds against mpro, read-out: Enzyme IC50
[8] = Severe acute respiratory syndrome coronavirus 2, HeLa, Table 3, read-out: CoV-2 HeLa EC50

SMILES	IC50 ([1]; Enzyme IC50, Table 2) [nM]	EC50 [2, 5] [nM]	EC50 [3] [nM]	CC50 at 24 h ([4]; Table 2, uninfected cells, 24 hours, read-out: Uninfected HeLa-ACE2 CC50) [nM]	IC50 ([1]; Table 2, read-out: Enzyme IC50) [nM]	EC50 [2, 6] [nM]	CC50 at 24 h [4] [nM]	IC50 [1, 7] [nM]	EC50 [2, 8] [nM]
O=C(c1cccnc1)N1C2CCC1CN(C(c1ccccc1)c1ccccc1)C2 [AA-597, (3-benzhydryl-3,8-diazabicyclo[3.2.1]octan-8-yl)(pyridin-3-yl)methanone]	3900	> 9610	> 9610	> 39800					
COc1cncc(C(=O)N2CCN(C(c3ccccc3)c3ccccc3)CC2)c1 [AA-589, (4-benzhydrylpiperazin-1-yl)(5-methoxypyridin-3-yl)methanone]			> 9610		480	1430	> 39800		
O=C(c1cncc(F)c1)N1CCN(C(c2ccccc2)c2ccccc2)CC1 [AA-592, (4-benzhydrylpiperazin-1-yl)(5-fluoropyridin-3-yl)methanone]			> 9610		970	2720	> 39800		
O=C(c1cc[nH]c(=O)c1)N1CCN(C2c3ccccc3CCc3ccccc32)CC1 [ZS-320, 4-[4-(2-tricyclo[9.4.0.03,8]pentadeca-1(11),3(8),4,6,12,14-hexaenyl)piperazine-1-carbonyl]-1H-pyridin-2-one]			> 9610		1180	2530	> 39800		
O=C(c1cncc([N+](=O)[O-])c1)N1CCN(C2c3ccccc3CCc3ccccc32)CC1 [ZS-339, (5-nitro-3-pyridyl)-[4-(2-tricyclo[9.4.0.03,8]pentadeca-1(11),3(8),4,6,12,14-hexaenyl)piperazin-1-yl]methanone]			> 9610		1150	4060	> 39800		
O=C(c1cncc2nc[nH]c12)N1CCC(=C2c3ccccc3CS(=O)(=O)c3ccccc32)CC1 [NZ-803, [4-(5,5-dioxo-6H-benzo[c][1]benzothiepin-11-ylidene)-1-piperidyl]-(1H-imidazo[4,5-c]pyridin-7-yl)methanone]			325		91	183	> 39800		
O=C(c1cnccc1Cl)N1CCN(C(c2ccccc2)c2ccccc2)CC1 [AA-605, (4-benzhydrylpiperazin-1-yl)(4-chloropyridin-3-yl)methanone]			7160		1300	3030	> 39800		
Cc1cncc(C(=O)N2CCC(N(c3ccccc3)c3ccccc3)CC2)c1 [AA-613, (4-(diphenylamino)piperidin-1-yl)(5-methylpyridin-3-yl)methanone]		> 9610	> 9610		820		> 39800		
O=C(c1cncc2[nH]ccc12)N1CCC(=C2c3ccccc3CS(=O)(=O)c3ccccc32)CC1 [NZ-805, [4-(5,5-dioxo-6H-benzo[c][1]benzothiepin-11-ylidene)-1-piperidyl]-(1H-pyrrolo[2,3-c]pyridin-4-yl)methanone]			64		48	58	> 39800	14	58
Cc1cncc(C(=O)N2CCN(C(c3cccnc3)c3cccc(F)c3)CC2)c1 (stereo not drawn) [MKP-1290, 1-[(3-fluorophenyl)(pyridin-3-yl)methyl]-4-(5-methylpyridine-3-carbonyl)piperazine]			186		96	105	> 39800	96	105
Cc1c(Br)cncc1C(=O)N1CCN(C2c3ccccc3CCc3ccccc32)CC1 [ZS-346, (5-bromo-4-methyl-3-pyridyl)-[4-(2-tricyclo[9.4.0.03,8]pentadeca-1(11),3(8),4,6,12,14-hexaenyl)piperazin-1-yl]methanone]			2040		270	1070	> 39800		
O=C(c1cncc2cc[nH]c12)N1CCC(=C2c3ccccc3CS(=O)(=O)c3ccccc32)CC1 [NZ-804, [4-(5,5-dioxo-6H-benzo[c][1]benzothiepin-11-ylidene)-1-piperidyl]-(1H-pyrrolo[3,2-c]pyridin-7-yl)methanone]			162		30	15	> 39800	9	15

— US20250084091A1, “INHIBITORS OF SARS-COV-2” (The Texas A&M University System, priority 2021, published 2025)
